According to US11407719B2, “Anti-inflammatory agents” (Resverlogix Corp., priority 2009, dated 2022):

Columns and labels:
[1] = tested on: hIL-6 mRNA; test: Quantification of hIL-6 mRNA; format: cell-based, human; design: key: Active: an active compound is one that causes a ≥20% inhibition in IL-6 mRNA at a concentration less than or equal to 10 μM; conditions: IL-6 mRNA by real-time PCR; differentiated U937 cells, 1 h pretreatment, lipopolysaccharide stimulation 3 h; concentration ≤10 μM
How it was run: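 U937 cells, differentiated for 3 days, were pretreated with compound for 1 h and then stimulated with E. coli LPS for 3 h at 37 °C. IL-6 mRNA was quantified by one-step qRT-PCR, with Ct normalized to an internal control, and fold induction was expressed relative to control.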

[2] = tested on: VCAM-1 mRNA; test: Quantification of hVCAM mRNA; format: cell-based, human; design: key: Active: an active compound is one that causes a ≥20% inhibition in VCAM-1 mRNA at a concentration less than or equal to 10 μM; -1 mRNA at a concentration less than or equal to 10 μM; conditions: VCAM-1 mRNA by real-time PCR; HUVECs, 1 h pretreatment, tumor necrosis factor-α stimulation 24 h; concentration ≤10 μM
Experimental: In this example, […] in tissue culture cells was quantitated to measure the transcriptional inhibition of hVCAM when treated with a compound of the invention.
Human umbilical vein endothelial cells (HUVECs) were plated in a 96-well plate (4.0×10^3 cells/well) in 100 μL EGM media and incubated for 24 h prior to the addition of the compound of interest. The cells were pretreated for 1 h with the test compound prior to stimulation with tumor necrosis factor-α. The cells were incubated for an additional 24 h before the cells were harvested. At time of harvest, the spent media was removed from the HUVECs and rinsed in 200 μL PBS. Cell lysis solution (70 μL) was then added the cells in each well and incubated for ˜5-10 min at room temperature, to allow for complete cell lysis and detachment. mRNA was then prepared using the “mRNA Catcher PLUS plate” (Invitrogen), according to the protocol supplied. After the last wash, as much wash buffer as possible was aspirated without allowing the wells to dry. Elution buffer (E3, 70 μL) was then added to each well. mRNA was then eluted by incubating the mRNA Catcher PLUS plate with elution buffer for 5 min at 68° C. and then immediately placing the plate on ice.
The eluted mRNA so isolated was then used in a one-step quantitative real-time PCR reaction, using components of the Ultra Sense Kit together with Applied Biosystems primer-probe mixes. Real-time PCR data was analyzed, normalizing the Ct values for hVCAM to an internal control, prior to determining the fold induction of each unknown sample, relative to the control.

| Compound | Inhibition of IL-6 expression [1] | Inhibition of VCAM-1 expression [2] | melting point |
| --- | --- | --- | --- |
| COc1cc(OC)c2c(=O)[nH]c(-c3cc(C)c(OCCN4CCCCCC4)c(C)c3)nc2c1 [2-(4-(2-(Azepan-1-yl)ethoxy)-3,5-dimethylphenyl)-5,7-dimethoxyquinazolin-4(3H)-one] | Active | Active | 198 to 199 °C |
| COc1cc(OCCOc2ccccc2)cc2nc(-c3cc(C)nc(C)c3)[nH]c(=O)c12 [2-(2,6-Dimethylpyridin-4-yl)-5-methoxy-7-(2-phenoxyethoxy)quinazolin-4(3H)-one] | Active | Active | 223 to 224 °C |
| COc1cc(OCCOCc2ccccc2)cc2nc(-c3cc(C)nc(C)c3)[nH]c(=O)c12 [7-(2-(Benzyloxy)ethoxy)-2-(2,6-dimethylpyridin-4-yl)-5-methoxyquinazolin-4(3H)-one] | Active | Active | 178 to 180 °C |
| Cc1cc(C)c2c(=O)[nH]c(-c3cc(C)c(OCCN4CCCC4)c(C)c3)nc2c1 [2-(3,5-Dimethyl-4-(2-(pyrrolidin-1-yl)ethoxy)phenyl)-5,7-dimethylquinazolin-4(3H)-one] | Active | – | 181 to 182 °C |
| COc1cc(OC)c2c(=O)[nH]c(-c3cc(C)cc(OCCO)c3)nc2c1 [2-(3-(2-Hydroxyethoxy)-5-methylphenyl)-5,7-dimethoxyquinazolin-4(3H)-one] | Active | Active | 106.9 to 109.1 °C |
| Cc1cc(-c2nc3cccc(Cl)c3c(=O)[nH]2)cc(C)c1OCCN1CCCC1 [5-Chloro-2-(3,5-dimethyl-4-(2-(pyrrolidin-1-yl)ethoxy)phenyl)quinazolin-4(3H)-one] | Active | Active | 179 to 180 °C |
| Cc1cc(-c2nc3cc(OCCOC(C)C)cc(OCCOC(C)C)c3c(=O)[nH]2)cc(C)n1 [2-(2,6-dimethylpyridin-4-yl)-5,7-bis(2-isopropoxyethoxy)quinazolin-4(3H)-one] | Active | Active | 124 to 125 °C |
| COc1cc(OC)c2c(=O)[nH]c(-c3cc(C)c(OCCCCN4CCCC4)c(C)c3)nc2c1 [2-(3,5-Dimethyl-4-(4-(pyrrolidin-1-yl)butoxy)phenyl)-5,7-dimethoxyquinazolin-4(3H)-one] | Active | Active | 180 to 181 °C |
| COCCOc1cc(OC)c2c(=O)[nH]c(-c3ccnc(C)c3)nc2c1 [5-methoxy-7-(2-methoxyethoxy)-2-(2-methylpyridin-4-yl)quinazolin-4(3H)-one] | Active | Active | 260 to 262 °C |
| COc1cc(OC)c2c(=O)[nH]c(-c3ccc(CN4C(=O)CNC4=O)cc3)nc2c1 [3-(4-(5,7-Dimethoxy-4-oxo-3,4-dihydroquinazolin-2-yl)benzyl)imidazolidine-2,4-dione] | Active | Active | 317 to 318 °C |
| COc1cc(OC)c2c(=O)[nH]c(-c3ccc(Cc4nnn[nH]4)cc3)nc2c1 [2-(4-((1H-Tetrazol-5-yl)methyl)phenyl)-5,7-dimethoxyquinazolin-4(3H)-one] | Active | – | 295 to 296 °C |
| COCCOc1cc(OCCOC)c2c(=O)[nH]c(-c3cc(C)nc(C)c3)nc2c1 [2-(2,6-Dimethylpyridin-4-yl)-5,7-bis(2-methoxyethoxy)quinazolin-4(3H)-one] | Active | Active | 149.8 to 151.4 °C |
| COc1cccc2c(=O)[nH]c(-c3cc(C)c(OCCN4CCCC4)c(C)c3)nc12 [2-(3,5-Dimethyl-4-(2-(pyrrolidin-1-yl)ethoxy)phenyl)-8-methoxyquinazolin-4(3H)-one] | Active | Active | 231 to 232 °C |
| Cc1cc(-c2nc3cc(OC(C)C)cc(OC(C)C)c3c(=O)[nH]2)cc(C)c1OCCN1CCCC1 [2-(3,5-Dimethyl-4-(2-(pyrrolidin-1-yl)ethoxy)phenyl)-5,7-diisopropoxyquinazolin-4(3H)-one] | Active | – | 65 to 68 °C |
| COCCOc1cc(OCCN2CCCC2)c2c(=O)[nH]c(-c3cc(C)nc(C)c3)nc2c1 [2-(2,6-Dimethylpyridin-4-yl)-7-(2-methoxyethoxy)-5-(2-(pyrrolidin-1-yl)ethoxy)quinazolin-4(3H)-one] | Active | Active | 60.4 to 62.3 °C |
| COc1ccc2nc(-c3cc(C)c(OCCN4CCCC4)c(C)c3)[nH]c(=O)c2c1 [2-(3,5-Dimethyl-4-(2-(pyrrolidin-1-yl)ethoxy)phenyl)-6-methoxyquinazolin-4(3H)-one] | Active | Active | 201.2 to 203.1 °C |
| COc1cc(OC)c2c(=O)n(CCCN3CCCC3)c(-c3cc(C)c(OCCCN4CCCC4)c(C)c3)nc2c1 [2-(3,5-Dimethyl-4-(3-(pyrrolidin-1-yl)propoxy)phenyl)-5,7-dimethoxy-3-(3-(pyrrolidin-1-yl)propyl)quinazolin-4(3H)-one] | Active | – | 109 to 111 °C |
| COc1cc(OC)c2c(=O)[nH]c(-c3ccc(OCCN4CCCC4)c(C)c3)nc2c1 [5,7-Dimethoxy-2-(3-methyl-4-(2-(pyrrolidin-1-yl)ethoxy)phenyl)quinazolin-4(3H)-one] | Active | Active | 230 to 231 °C |
| COc1cc(OC)c2c(=O)[nH]c(-c3cc(C)c(OCCN4C(=O)CN(C(C)C)C4=O)c(C)c3)nc2c1 [3-(2-(4-(5,7-Dimethoxy-4-oxo-3,4-dihydroquinazolin-2-yl)-2,6-dimethylphenoxy)ethyl)-1-isopropylimidazolidine-2,4-dione] | Active | Active | 219 to 221 °C |
| COc1cc(OC)c2c(=O)[nH]c(-c3cc(C)c(OCCN4CCC4)c(C)c3)nc2c1 [2-(4-(2-(Azetidin-1-yl)ethoxy)-3,5-dimethylphenyl)-5,7-dimethoxyquinazolin-4(3H)-one] | Active | – | 204 to 205 °C |
| COc1cc(OC)c2c(=O)[nH]c(-c3ccc(OCCN4CCCC4)cc3)nc2c1 [5,7-Dimethoxy-2-(4-(2-(pyrrolidin-1-yl)ethoxy)phenyl)quinazolin-4(3H)-one] | Active | – | 226 to 227 °C |
| Cc1cc(-c2nc3c(Cl)cccc3c(=O)[nH]2)cc(C)c1OCCN1CCCC1 [8-Chloro-2-(3,5-dimethyl-4-(2-(pyrrolidin-1-yl)ethoxy)phenyl)quinazolin-4(3H)-one] | Active | – | 216 to 217 °C |
| COc1cc(OC)c2c(=O)[nH]c(-c3cc(C)c(OCCN4CCN(C)CC4)c(C)c3)nc2c1 [2-(3,5-Dimethyl-4-(2-(4-methylpiperazin-1-yl)ethoxy)phenyl)-5,7-dimethoxyquinazolin-4(3H)-one] | Active | Active | 180 to 182 °C |
| COc1cc(OC)c2c(=O)[nH]c(-c3cc(C)nc(C)c3)nc2c1 [2-(2,6-Dimethylpyridin-4-yl)-5,7-dimethoxyquinazolin-4(3H)-one] | Active | – | 291 to 292 °C |
| COCCOc1cc(OC)c2c(=O)[nH]c(-c3cc(C)nc(C)c3)nc2c1 [2-(2,6-Dimethylpyridin-4-yl)-5-methoxy-7-(2-methoxyethoxy)quinazolin-4(3H)-one] | Active | – | 228.8 to 230.4 °C |
| Cc1cc(-c2nc3ccc(CN4CCN(C)CC4)cc3c(=O)[nH]2)cc(C)n1 [2-(2,6-Dimethylpyridin-4-yl)-6-((4-methylpiperazin-1-yl)methyl)quinazolin-4(3H)-one] | Active | – | 229 to 230 °C |
| COc1cc(OC)c2c(=O)[nH]c(-c3ccc(N4CCC(O)CC4)cc3)nc2n1 [2-(4-(4-Hydroxypiperidin-1-yl)phenyl)-5,7-dimethoxypyrido[2,3-d]pyrimidin-4(3H)-one] | Active | – | 284 to 286 °C |
